Laboratory results as given in ChEMBL document CHEMBL3039007, “Structure-based identification of OATP1B1/3 inhibitors” (Mol Pharmacol, 2013).

Assays:
[1] = target: T1, Solute carrier organic anion transporter family member 1B1 (Homo sapiens, UniProt Q9Y6L6); conditions: chinese hamster, cho, 10 µM
T1 sequence (Q9Y6L6 whole entry): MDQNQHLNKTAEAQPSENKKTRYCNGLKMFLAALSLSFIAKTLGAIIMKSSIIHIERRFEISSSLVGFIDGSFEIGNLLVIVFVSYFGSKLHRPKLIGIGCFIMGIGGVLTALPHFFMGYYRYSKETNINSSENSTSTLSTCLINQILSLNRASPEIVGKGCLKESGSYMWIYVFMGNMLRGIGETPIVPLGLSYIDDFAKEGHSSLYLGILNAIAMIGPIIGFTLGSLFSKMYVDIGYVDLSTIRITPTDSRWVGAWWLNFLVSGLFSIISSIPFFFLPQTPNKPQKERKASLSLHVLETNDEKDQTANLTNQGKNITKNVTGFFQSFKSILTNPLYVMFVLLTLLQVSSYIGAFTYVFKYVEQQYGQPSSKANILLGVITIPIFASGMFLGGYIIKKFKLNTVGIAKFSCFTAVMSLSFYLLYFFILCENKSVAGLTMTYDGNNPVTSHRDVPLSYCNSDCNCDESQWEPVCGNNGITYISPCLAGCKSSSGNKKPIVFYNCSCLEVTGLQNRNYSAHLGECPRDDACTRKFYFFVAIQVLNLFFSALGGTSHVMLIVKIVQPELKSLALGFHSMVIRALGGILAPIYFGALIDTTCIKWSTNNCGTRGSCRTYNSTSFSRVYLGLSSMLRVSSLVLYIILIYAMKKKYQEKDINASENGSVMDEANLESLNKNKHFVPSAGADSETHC

[2] = target: T2, Solute carrier organic anion transporter family member 1B3 (Homo sapiens, UniProt Q9NPD5); conditions: chinese hamster, cho, 10 µM
T2 sequence (Q9NPD5 whole entry): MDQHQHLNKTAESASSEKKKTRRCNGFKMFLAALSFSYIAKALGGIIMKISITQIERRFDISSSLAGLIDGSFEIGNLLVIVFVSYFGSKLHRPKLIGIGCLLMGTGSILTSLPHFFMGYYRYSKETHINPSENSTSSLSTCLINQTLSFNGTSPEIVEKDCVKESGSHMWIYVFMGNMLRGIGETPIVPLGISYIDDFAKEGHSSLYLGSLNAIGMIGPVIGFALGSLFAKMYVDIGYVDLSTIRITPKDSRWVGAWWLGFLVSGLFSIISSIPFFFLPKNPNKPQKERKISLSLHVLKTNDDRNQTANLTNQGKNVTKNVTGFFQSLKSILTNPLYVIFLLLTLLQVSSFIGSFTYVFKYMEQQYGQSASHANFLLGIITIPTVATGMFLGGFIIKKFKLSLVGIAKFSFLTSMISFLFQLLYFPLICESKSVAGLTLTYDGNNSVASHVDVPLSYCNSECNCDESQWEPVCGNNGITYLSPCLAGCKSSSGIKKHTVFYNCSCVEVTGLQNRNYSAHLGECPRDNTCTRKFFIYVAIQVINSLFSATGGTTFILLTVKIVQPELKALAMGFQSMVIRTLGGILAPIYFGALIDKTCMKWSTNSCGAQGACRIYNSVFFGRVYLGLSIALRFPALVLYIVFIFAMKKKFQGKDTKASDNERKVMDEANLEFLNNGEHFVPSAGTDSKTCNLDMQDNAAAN

`CN(C)C(=O)Oc1cccc([N+](C)(C)C)c1.[Br-]` [NEOSTIGMINE BROMIDE] showed a residual activity [1] of 95.12% and a residual activity [2] of 101.1%.
`CO[C@H]1[C@H](O)[C@H](O[C@H]2CC[C@@]3(C)[C@H](CC[C@@H]4[C@@H]3CC[C@]3(C)[C@@H](C5=CC(=O)OC5)CC[C@]43O)C2)O[C@@H](C)[C@@H]1O` [NERIIFOLIN] gave a residual activity [1] of 95.6% and a residual activity [2] of 148.8%.
`C=CC(C)(O)CC/C=C(\C)CCC=C(C)C` (centres undefined) [NEROLIDOL] was tested, and the residual activity [1] was 147.7% and the residual activity [2] was 131.1%.
`O=C(O)c1cccnc1` [NIACIN] showed a residual activity [1] of 124.4% and a residual activity [2] of 89.89%.
Compound `COC(=O)C1=C(C)NC(C)=C(C(=O)OCCN(C)Cc2ccccc2)C1c1cccc([N+](=O)[O-])c1.Cl` (centres undefined) [NICARDIPINE HYDROCHLORIDE] has a residual activity [1] of 56.95% and a residual activity [2] of 67.41%.
`CO[C@]12C[C@@H](COC(=O)c3cncc(Br)c3)CN(C)[C@@H]1Cc1cn(C)c3cccc2c13` [NICERGOLINE] was tested, and the residual activity [1] was 91.22% and the residual activity [2] was 124.1%.
`COC(=O)C1=C(C)NC(C)=C(C(=O)OC)C1c1ccccc1[N+](=O)[O-]` [NIFEDIPINE] was tested, and the residual activity [1] was 75.83% and the residual activity [2] was 170.6%.
Compound `Cc1c(NC(=O)c2cccnc2)c(=O)n(-c2ccccc2)n1C` [NIFENAZONE] has a residual activity [1] of 96.39% and a residual activity [2] of 120.6%.
`O=C(O)c1cccnc1Nc1cccc(C(F)(F)F)c1` [NIFLUMIC ACID] gave a residual activity [1] of 79.63% and a residual activity [2] of 83.73%.
`C[C@H](C[C@@H](O)[C@@H]1OC1(C)C)[C@@H]1CC[C@]2(C)C3=CC[C@H]4C(C)(C)C(=O)CC[C@]4(C)[C@H]3CC[C@@]12C` [NILOTICIN] showed a residual activity [1] of 72.03% and a residual activity [2] of 113.7%.
`CC1(C)NC(=O)N(c2ccc([N+](=O)[O-])c(C(F)(F)F)c2)C1=O` [NILUTAMIDE] was tested, and the residual activity [1] was 116.6% and the residual activity [2] was 97.83%.
`CS(=O)(=O)Nc1ccc([N+](=O)[O-])cc1Oc1ccccc1` [NIMESULIDE] was tested, and the residual activity [1] was 82.48% and the residual activity [2] was 58.26%.
`Cc1ncc(CNC(=O)N(CCCl)N=O)c(N)n1` [NIMUSTINE] was tested, and the residual activity [1] was 121.9% and the residual activity [2] was 112%.
`O=C(O)C1CCCNC1` (centres undefined) [NIPECOTIC ACID] gave a residual activity [1] of 91.42% and a residual activity [2] of 103.2%.
With `N=C(NCCC[C@H](N)C(=O)O)N[N+](=O)[O-]` [NITROARGININE] the residual activity [1] was 113.4% and the residual activity [2] was 113.8%.
With `O=C1CN(/N=C/c2ccc([N+](=O)[O-])o2)C(=O)N1` [NITROFURANTOIN] the residual activity [1] was 97.62% and the residual activity [2] was 100.8%.
`NC(=O)N/N=C/c1ccc([N+](=O)[O-])o1` [NITROFURAZONE] was tested, and the residual activity [1] was 93.46% and the residual activity [2] was 98.78%.
`NC(=O)c1cc([N+](=O)[O-])cc([N+](=O)[O-])c1` [NITROMIDE] was tested, and the residual activity [1] was 103.7% and the residual activity [2] was 106.7%.
Compound `COC(=O)Nc1nc2ccc(C(=O)c3cccs3)cc2[nH]1` [NOCODAZOLE] has a residual activity [1] of 105.9% and a residual activity [2] of 95.15%.
With `CN1Cc2c(N)cccc2C(c2ccccc2)C1.O=C(O)/C=C\C(=O)O` (centres undefined) [NOMIFENSINE MALEATE] the residual activity [1] was 59.46% and the residual activity [2] was 79.07%.
For `CCCCC[C@H](CC(=O)O)C(=O)O` [NONIC ACID], the residual activity [1] was 128.4% and the residual activity [2] was 117%.
With `CC(N)C(O)c1ccc(O)c(O)c1.Cl` (centres undefined) [NORDEFRIN HYDROCHLORIDE] the residual activity [1] was 122.3% and the residual activity [2] was 103.4%.
`NC[C@H](O)c1ccc(O)c(O)c1` [NOREPINEPHRINE] was tested, and the residual activity [1] was 112.9% and the residual activity [2] was 102.3%.
In the case of `C#C[C@]1(OC(C)=O)CC[C@H]2[C@@H]3CCC4=CC(=O)CC[C@@H]4[C@H]3CC[C@@]21C` [NORETHINDRONE ACETATE], the residual activity [1] is reported as 106.9% and the residual activity [2] is reported as 104.9%.
With `C#C[C@]1(O)CC[C@H]2[C@@H]3CCC4=CC(=O)CC[C@@H]4[C@H]3CC[C@@]21C` [NORETHINDRONE] the residual activity [1] was 91.27% and the residual activity [2] was 109.8%.
`C#C[C@]1(O)CC[C@H]2[C@@H]3CCC4=C(CCC(=O)C4)[C@H]3CC[C@@]21C` [NORETHYNODREL] was tested, and the residual activity [1] was 64.52% and the residual activity [2] was 124.5%.
`CCn1cc(C(=O)O)c(=O)c2cc(F)c(N3CCNCC3)cc21` [NORFLOXACIN] showed a residual activity [1] of 97.94% and a residual activity [2] of 99.94%.
Compound `C#CC1(O)CC[C@H]2[C@@H]3CCC4=CC(=O)CC[C@@H]4[C@H]3CC[C@@]21CC` (some centres undefined) [NORGESTREL] has a residual activity [1] of 90.26% and a residual activity [2] of 102.9%.
`c1ccc2c(c1)[nH]c1cnccc12` [NORHARMANE] showed a residual activity [1] of 95.1% and a residual activity [2] of 87.66%.
Compound `COc1ccc2c(c1OC)C(=O)O[C@@H]2[C@H]1c2c(cc3c(c2OC)OCO3)CCN1C.Cl` [NOSCAPINE HYDROCHLORIDE] has a residual activity [1] of 114.6% and a residual activity [2] of 93.17%.
`CO[C@@H]1[C@@H](OC(N)=O)[C@@H](O)[C@H](Oc2ccc3c([O-])c(NC(=O)c4ccc(O)c(CC=C(C)C)c4)c(=O)oc3c2C)OC1(C)C.[Na+]` [NOVOBIOCIN SODIUM] gave a residual activity [1] of 56.21% and a residual activity [2] of 47.15%.
Compound `CC(CCc1ccccc1)NC(C)C(O)c1ccc(O)cc1.Cl` (centres undefined) [NYLIDRIN HYDROCHLORIDE] has a residual activity [1] of 112.1% and a residual activity [2] of 116.9%.
In the case of `C=C(C)[C@H]1COc2cc3oc(=O)ccc3cc2O1` [OBLIQUIN], the residual activity [1] is reported as 112.3% and the residual activity [2] is reported as 103.6%.
With `COC1=CC(=O)C(O)=C/C1=C\C=C\c1ccccc1` [OBTUSAQUINONE] the residual activity [1] was 60.32% and the residual activity [2] was 88.38%.
`Cl.NCC(O)c1ccc(O)cc1` (centres undefined) [OCTOPAMINE HYDROCHLORIDE] was tested, and the residual activity [1] was 89.25% and the residual activity [2] was 96.06%.
For `CC1COc2c(N3CCN(C)CC3)c(F)cc3c(=O)c(C(=O)O)cn1c23` (centres undefined) [OFLOXACIN], the residual activity [1] was 65.85% and the residual activity [2] was 89.51%.
`O=C(O)CN(CC(=O)O)Cc1cc2c(cc1O)Oc1cc(O)c(CN(CC(=O)O)CC(=O)O)cc1C21OC(=O)c2ccccc21` [OFTASCEINE] gave a residual activity [1] of 105.6% and a residual activity [2] of 121.3%.
For `CO[C@H]1C[C@H](O[C@H]2[C@H](C)[C@@H](O[C@@H]3O[C@H](C)C[C@H](N(C)C)[C@H]3O)[C@@H](C)C[C@@]3(CO3)C(=O)[C@H](C)[C@@H](O)[C@@H](C)[C@@H](C)OC(=O)[C@@H]2C)O[C@@H](C)[C@@H]1O.O=P(O)(O)O` [OLEANDOMYCIN PHOSPHATE], the residual activity [1] was 102.8% and the residual activity [2] was 105.8%.
Compound `CO[C@H]1C[C@H](O[C@H]2CC[C@@]3(C)[C@H](CC[C@@H]4[C@@H]3CC[C@]3(C)[C@@H](C5=CC(=O)OC5)[C@@H](OC(C)=O)C[C@]43O)C2)O[C@@H](C)[C@@H]1O` [OLEANDRIN] has a residual activity [1] of 111.5% and a residual activity [2] of 91.7%.
`CC1(C)CC[C@]2(C(=O)O)CC[C@]3(C)C(=CC[C@@H]4[C@@]5(C)CC[C@H](O)C(C)(C)[C@@H]5CC[C@]43C)[C@@H]2C1` [OLEANOLIC_ACID] showed a residual activity [1] of 83.88% and a residual activity [2] of 73.61%.
`COc1ccc(CC(=O)c2ccc(O)cc2O)cc1` [ONONETIN] gave a residual activity [1] of 149.8% and a residual activity [2] of 96.22%.
For `CCCCCCCCCCC[C@@H](C[C@@H]1OC(=O)[C@H]1CCCCCC)OC(=O)[C@H](CC(C)C)NC=O` [ORLISTAT], the residual activity [1] was 85.27% and the residual activity [2] was 84.62%.
